Source: PMC7377361, “Pressurized DNA state inside herpes capsids—A novel antiviral target” (PLoS Pathogens, 2020)
Where no end group is shown, it is not given here.

Experiments:
HSV-1 C-capsids [1] = test: Binding of GFP-HSV-1 C-capsids to nuclei of digitonin-permeabilized Vero cells (SR-SIM); type: cell-based
Experimental: This was verified with a fluorescently labeled nuclear localization signal (NLS), added to purified rat liver nuclei incubated with cytosolic extracts (as a source of soluble import factors) supplemented with an ATP regeneration system, see Supporting Materials for experimental description and S4A Fig. These controls were also reproduced with a digitonin-permeabilized cell assay, which accurately recapitulates capsid-nucleus binding and nuclear import in living cells; see Supporting Materials and data shown in S4B Fig. In agreement with observations in the isolated nuclei system (Fig 3B), we also confirmed via a digitonin-permeabilized cell assay that none of the three compounds interfered with capsid-NPC binding in cells. Attachment of GFP-capsids to nuclei was visualized with SR-SIM (S4C Fig). The addition of WGA prevented capsid binding, showing capsid-NPC binding specificity (S4C Fig).
To obtain cytosolic extracts as a source of soluble import factors, Vero cell monolayers (4 x 10^7 cells) were washed with ice-cold PBS and scraped off the plate into 5 ml of cold PBS. […] The samples were then processed for fluorescence imaging as described above. […]

HSV-1 C-capsids [2] = test: Reconstituted nuclei-capsid MOA-assay, ultrathin-sectioning EM of DNA ejection; type: biochemical; settings: 37°C, 40 min; DAB-Am-4 58.5 μM, bPEI 600 39 μM, Arg^5+ 25 μM (N/P 1.5)
Experimental: Once the integrity and functionality of the reconstituted nuclei-capsid system for MOA testing was established, we applied a stringent test of the antiviral activity of each compound. We used ultrathin-sectioning EM to visualize DNA injection from HSV-1 capsids into isolated nuclei with DAB-Am-4 (58.5 μM), bPEI 600 (39 μM), and Arg^5+(25 μM). Compound concentrations corresponded to an N/P ratio of 1.5 (scaled proportionally to virus concentration, as described above) (Fig 4). Purified DNA-filled C-capsids were incubated with isolated rat liver nuclei in the presence of cell cytosol supplemented with ATP regeneration system for 40 min at 37°C, providing optimum conditions, found to maximize capsid binding to NPCs with subsequent DNA ejection. […] Only capsids that appeared bound to the nuclear membrane are included in the statistics (more than 790 nuclei-bound capsids and over 140 nuclei were counted for each sample analysis, providing good statistics). [Note that micrographs shown in Raw 1 of Fig 4 are lower magnification images (13,500X) which show an area around a nuclear membrane with empty and DNA-filled capsids. For our analysis of capsids bound to NPCs, we only used higher magnification images (25,000X) shown in Raw 2, to identify capsids that were associated with visible NPCs. A larger collection of these EM-micrographs at magnification 25,000X with and without different compounds added is shown in a supporting raw data file (S5 Fig).]
We built an in vitro viral HSV-1 DNA translocation system in which the HSV-1 genome was released into nucleoplasm in a homogenate solution mimicking the cytoplasm environment; see details in previously described protocol in ref.[41]. In a typical system, rat liver cell nuclei were incubated with C-capsids (HSV-1 or GFP-labeled HSV-1) in solution containing: (i) cytosol, (ii) BSA, (iii) ATP regeneration system; see details in ref.[41]. The system was incubated at 37°C for 40 min, sufficient for capsid binding to nuclei. For inhibition studies, wheat germ agglutinin (WGA) was preincubated with the nuclei prior to addition of C-capsids. For compound-induced inhibition of DNA ejection studies, C-capsids were preincubated with the polyvalent cationic agents at the concentrations described in the main text before adding capsids to nuclei.
After incubation of nuclei with C-capsids, the samples were washed once with CBB buffer (1,000 rpm for 10 min in a microcentrifuge). The supernatant was then removed and replaced with a fixative (2.5% EM-grade glutaraldehyde and 2.0% EM-grade formaldehyde in 0.1 M sodium cacodylate buffer, pH 7.4) for 3 hours at 4 °C. The fixative was then removed, replaced briefly with buffer, and then replaced with 1% osmium tetroxide in buffer for 90 minutes. Each sample was then subjected to 10-minute buffer rinse, after which it was placed in 1% aqueous uranyl acetate and left overnight. The next day, each sample was dehydrated via a graded ethanol series, culminating in propylene oxide. Following a graded propylene oxide; Epon812 series, the nuclear pellets were embedded in Epon812 prior to cutting. Ultrathin (ca. 90 nm) Epon sections on grids were stained with 1% aqueous uranyl acetate and lead citrate. After the grids dried, areas of interest were imaged at 120 kV, spot 3 using a Tietz 2kx2k camera mounted on a Philips/FEI (now Thermo Fisher FEI) CM200 transmission electron microscope.

Experimental for HFF-1 cells: In parallel, for each DNA condensing compound, we determined the cytotoxicity concentration (CC50 value) using standard in vitro cellular replication assays in human foreskin fibroblast (HFF) cells (used as a standard for herpesvirus replication in vitro assays for antiviral compound tests)[48]. Cytotoxicity assays were performed on a parallel set of six-well plates containing confluent monolayers of HFF-1 cells at the same cell amount as used for antiviral plaque reduction assays for EC50 value determination, but cells were uninfected[48].
Cytotoxicity assays were performed on a parallel set of six-well plates containing HFF-1 cells that received the same compound concentrations as used for the antiviral assays but remained uninfected. […]
Each compound was evaluated in a standard cytotoxicity assay by standard methods [100]. […] The optical density was then determined at 550 nm and CC50 values were interpolated from the experimental data.
The inhibition of either Vero cell or HFF-1 cell proliferation was used to refine estimates of cytotoxicity for the compounds and was performed according to standard procedures [101]. […] The plates were incubated for 72 h at 37°C; the cells were then dislodged with trypsin and counted on a Beckman Coulter Counter. […]
Excerpt for MEF cell line: We also determined cytotoxicity in the murine MEF cell line, relevant to animal studies.

## RRRRR [Arg^5+]
HSV-1 C-capsids [1]
  binding of GFP-HSV-1 C-capsids to nuclei of permeabilized cells: not blocked
HSV-1 C-capsids [2]
  Capsids bound to NPC: DNA-filled capsids: 50%
  Capsids bound to NPC: DNA-filled capsids (count): 399
  Capsids bound to NPC: Empty capsids: 50%
  Capsids bound to NPC: Empty capsids (count): 398

## NCCCN(CCCN)CCCCN(CCCN)CCCN [DAB-Am-4]
HSV-1 C-capsids [1]
  binding of GFP-HSV-1 C-capsids to nuclei of permeabilized cells: not blocked
HSV-1 C-capsids [2]
  Capsids bound to NPC: DNA-filled capsids: 60%
  Capsids bound to NPC: DNA-filled capsids (count): 479
  Capsids bound to NPC: Empty capsids: 40%
  Capsids bound to NPC: Empty capsids (count): 313
MEF cell line
  CC50: 22 µM
HFF-1 cells
  CC50: 15 µM
